For this test, the system named is Botrytis cinerea (B05.10). In words: Resazurin antifungal assay of 180 alpha-factor peptide variants towards Botrytis (Example 2). Type of test: cell-based. The settings on record: % inhibition of fungal growth, Botrytis conidia, resazurin; for Inhibition at 50 μM: peptide 50 μM; for Inhibition at 100 μM: peptide 100 μM. The gist of the method:
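B. cinerea B05.10 conidia (5000/well) were exposed to peptides at 100, 50, 20, 15 and 10 μM final for 24 h at 20° C. Resazurin was then added and fluorescence read at 570/620 nm. Percent growth inhibition was calculated against conidia-only wells, with four technical replicates.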
On the technique in general: The colour change of resazurin is a common sign of viable cells or microbes.

Peptide text beside a SMILES is read from it.

Turning to `CSCC[C@H](NC(=O)[C@@H]1CCCN1C(=O)[C@H](CO)NC(=O)CNC(=O)[C@H](CC(N)=O)NC(=O)[C@H](CCCCN)NC(=O)[C@H](CC(C)C)NC(=O)[C@H](CCC(N)=O)NC(=O)[C@@H](NC(=O)[C@H](CC(=O)O)NC(=O)[C@H](Cc1c[nH]cn1)NC(=O)[C@@H](N)CCCCN)C(C)C)C(=O)N[C@@H](Cc1ccc(O)cc1)C(=O)O` [compound 156] (H-KHDVQLKNGSPMY-OH; N-terminus and C-terminus assumed), the “Inhibition at 50 μM” value was less than 90% and the “Inhibition at 100 μM” value is given as less than 90%.

On to `CSCC[C@H](NC(=O)[C@@H]1CCCN1C(=O)[C@H](CCC(N)=O)NC(=O)CNC(=O)[C@@H](NC(=O)[C@H](CCC(N)=O)NC(=O)[C@H](Cc1ccccc1)NC(=O)[C@H](CC(N)=O)NC(=O)CNC(=O)[C@H](Cc1c[nH]c2ccccc12)NC(=O)[C@H](Cc1c[nH]cn1)NC(=O)[C@@H](N)Cc1c[nH]c2ccccc12)[C@@H](C)O)C(=O)N[C@@H](Cc1ccc(O)cc1)C(=O)O` [compound 157] (H-WHWGNFQTGQPMY-OH; N-terminus and C-terminus assumed), for which the “Inhibition at 50 μM” value is less than 90% and the “Inhibition at 100 μM” value is listed as 97.14%.

For the compound `CSCC[C@H](NC(=O)[C@@H]1CCCN1C(=O)[C@H](CCC(=O)O)NC(=O)CNC(=O)[C@@H]1CCCN1C(=O)[C@H](CCCCN)NC(=O)[C@H](CC(C)C)NC(=O)[C@H](CC(N)=O)NC(=O)[C@H](CC(C)C)NC(=O)[C@H](Cc1c[nH]c2ccccc12)NC(=O)[C@H](Cc1c[nH]cn1)NC(=O)[C@@H]1CCCN1)C(=O)N[C@@H](Cc1ccc(O)cc1)C(=O)O` [compound 158] (H-PHWLNLKPGEPMY-OH; N-terminus and C-terminus assumed), the “Inhibition at 50 μM” value was less than 90% and the “Inhibition at 100 μM” value is on record as less than 90%.

In the case of `CSCC[C@H](NC(=O)[C@H](CO)NC(=O)[C@H](CCC(N)=O)NC(=O)CNC(=O)[C@@H]1CCCN1C(=O)[C@H](CCCCN)NC(=O)[C@H](Cc1ccccc1)NC(=O)[C@H](CC(N)=O)NC(=O)[C@H](CC(C)C)NC(=O)[C@H](CO)NC(=O)[C@H](CCCCN)NC(=O)[C@@H](N)Cc1c[nH]c2ccccc12)C(=O)N[C@@H](Cc1ccc(O)cc1)C(=O)O` [compound 159] (H-WKSLNFKPGQSMY-OH; N-terminus and C-terminus assumed), the “Inhibition at 50 μM” value is on record as less than 90% and the “Inhibition at 100 μM” value is listed as less than 90%.

Take `CSCC[C@H](NC(=O)[C@@H]1CCCN1C(=O)[C@H](CCC(N)=O)NC(=O)CNC(=O)[C@@H]1CCCN1C(=O)[C@H](CCCCN)NC(=O)[C@H](CC(C)C)NC(=O)[C@H](CO)NC(=O)[C@@H](NC(=O)[C@H](Cc1c[nH]c2ccccc12)NC(=O)[C@H](Cc1c[nH]cn1)NC(=O)[C@@H]1CCCN1)C(C)C)C(=O)N[C@@H](Cc1ccc(O)cc1)C(=O)O` [compound 160] (H-PHWVSLKPGQPMY-OH; N-terminus and C-terminus assumed): the “Inhibition at 50 μM” value is recorded as less than 90% and the “Inhibition at 100 μM” value is reported as less than 90%.

Regarding `CSCC[C@H](NC(=O)[C@@H]1CCCN1C(=O)[C@H](CO)NC(=O)CNC(=O)[C@@H]1CCCN1C(=O)[C@H](CCCCN)NC(=O)[C@H](Cc1ccccc1)NC(=O)[C@H](C)NC(=O)[C@@H](NC(=O)[C@H](Cc1c[nH]c2ccccc12)NC(=O)[C@H](Cc1c[nH]cn1)NC(=O)[C@@H]1CCCN1)C(C)C)C(=O)N[C@@H](Cc1ccc(O)cc1)C(=O)O` [compound 161] (H-PHWVAFKPGSPMY-OH; N-terminus and C-terminus assumed), the “Inhibition at 50 μM” value is on record as less than 90% and the “Inhibition at 100 μM” value was found to be 90.52%.

In the case of `CSCC[C@H](NC(=O)[C@@H]1CCCN1C(=O)[C@H](CCC(N)=O)NC(=O)CNC(=O)[C@@H]1CCCN1C(=O)[C@H](CCCCN)NC(=O)[C@H](CC(C)C)NC(=O)[C@H](CCC(=O)O)NC(=O)[C@H](CC(C)C)NC(=O)[C@H](Cc1ccc(O)cc1)NC(=O)[C@H](Cc1c[nH]cn1)NC(=O)[C@@H](N)CCCCN)C(=O)N[C@@H](Cc1ccc(O)cc1)C(=O)O` [compound 162] (H-KHYLELKPGQPMY-OH; N-terminus and C-terminus assumed), the “Inhibition at 50 μM” value was less than 90% and the “Inhibition at 100 μM” value was less than 90%.

In the case of `CSCC[C@H](NC(=O)[C@H](Cc1c[nH]cn1)NC(=O)[C@@H](N)Cc1c[nH]c2ccccc12)C(=O)N[C@H](C(=O)N[C@@H](CCC(N)=O)C(=O)N[C@@H](CC(C)C)C(=O)N[C@@H](CCCCN)C(=O)N1CCC[C@H]1C(=O)NCC(=O)N[C@@H](CCC(=O)O)C(=O)N1CCC[C@H]1C(=O)N[C@@H](CCSC)C(=O)N[C@@H](Cc1ccc(O)cc1)C(=O)O)C(C)C` [compound 163] (H-WHMVQLKPGEPMY-OH; N-terminus and C-terminus assumed), the “Inhibition at 50 μM” value is recorded as less than 90% and the “Inhibition at 100 μM” value is given as less than 90%.

With `CSCC[C@H](NC(=O)[C@@H]1CCCN1C(=O)[C@H](CCC(N)=O)NC(=O)CNC(=O)[C@@H]1CCCN1C(=O)[C@H](CCCCN)NC(=O)[C@H](CC(C)C)NC(=O)[C@H](CO)NC(=O)[C@H](CC(C)C)NC(=O)[C@@H](NC(=O)CNC(=O)[C@@H](N)CCCCN)[C@@H](C)O)C(=O)N[C@@H](Cc1ccc(O)cc1)C(=O)O` [compound 164] (H-KGTLSLKPGQPMY-OH; N-terminus and C-terminus assumed), the “Inhibition at 50 μM” value is on record as less than 90% and the “Inhibition at 100 μM” value is less than 90%.

Regarding `CSCC[C@H](NC(=O)[C@@H]1CCCN1C(=O)[C@H](CCC(N)=O)NC(=O)CNC(=O)[C@@H]1CCCN1C(=O)[C@H](CCCCN)NC(=O)[C@H](Cc1ccccc1)NC(=O)[C@H](CCC(=O)O)NC(=O)[C@H](CC(C)C)NC(=O)[C@H](CO)NC(=O)[C@H](Cc1c[nH]cn1)NC(=O)[C@@H](N)CCCCN)C(=O)N[C@@H](Cc1ccc(O)cc1)C(=O)O` [compound 165] (H-KHSLEFKPGQPMY-OH; N-terminus and C-terminus assumed), the “Inhibition at 50 μM” value is recorded as less than 90% and the “Inhibition at 100 μM” value is listed as less than 90%.

Take `CSCC[C@H](NC(=O)[C@@H]1CCCN1C(=O)[C@H](CCC(N)=O)NC(=O)CNC(=O)[C@H](CCCNC(=N)N)NC(=O)[C@H](CCCCN)NC(=O)[C@H](Cc1ccccc1)NC(=O)[C@H](CCC(N)=O)NC(=O)[C@@H](NC(=O)[C@H](Cc1ccccc1)NC(=O)[C@H](CCC(=O)O)NC(=O)[C@@H](N)Cc1c[nH]c2ccccc12)C(C)C)C(=O)N[C@@H](Cc1ccc(O)cc1)C(=O)O` [compound 166] (H-WEFVQFKRGQPMY-OH; N-terminus and C-terminus assumed): the “Inhibition at 50 μM” value is less than 90% and the “Inhibition at 100 μM” value is listed as less than 90%.

Consider `CSCC[C@H](NC(=O)[C@@H]1CCCN1C(=O)[C@H](CCC(N)=O)NC(=O)CNC(=O)[C@H](CCCNC(=N)N)NC(=O)[C@H](CCC(N)=O)NC(=O)[C@H](Cc1ccccc1)NC(=O)[C@H](CCC(=O)O)NC(=O)[C@H](CC(C)C)NC(=O)[C@H](Cc1c[nH]c2ccccc12)NC(=O)[C@H](Cc1c[nH]cn1)NC(=O)[C@@H](N)Cc1c[nH]c2ccccc12)C(=O)N[C@@H](Cc1ccc(O)cc1)C(=O)O` [compound 167] (H-WHWLEFQRGQPMY-OH; N-terminus and C-terminus assumed), for which the “Inhibition at 50 μM” value is reported as less than 90% and the “Inhibition at 100 μM” value was less than 90%.

As usually defined, the Inhibition is the drop in the measured response relative to a control, in per cent.
